The target in data set [1] is T1, human 5HT7A-HEK membranes (Homo sapiens, UniProt P34969).
T1 construct: expressed in transfected cells; host or cells: HEK cells (membranes)
In words: 5-HT7 binding assay ([3H]LSD displacement). The following applies: Cheng-Prusoff. As to the method: Solutions of test compounds were a 10 mM stock in dimethyl sulfoxide (DMSO) and then further diluted 1:200 in assay buffer [50 mM tris(hydroxymethyl)aminomethane (TRIS), pH 7.5, 10 mM MgCl2, 0.5 mM ethylenediaminetetraacetic acid (EDTA)] to 50 µM (0.5% DMSO). Ten dilutions of the test compound in 0.5% DMSO/assay buffer were prepared in a twofold serial dilution to yield final compound concentrations ranging from 10 µM to 19.5 nM in the assay. In a 96-well polypropylene plate, 50 µL of assay buffer was added to all wells, and then 50 µL of 0.5% DMSO/assay buffer or 50 µM chlorpromazine or serial dilutions of test compounds were added to selected wells. To all wells, 100 µL of 0.2 mg/mL human 5HT7A-HEK membranes and 50 µL of 5 nM [^3H]lysergic acid diethylamide (LSD) in assay buffer were added. Reactions were incubated at room temperature for 1.5 h and harvested by rapid filtration onto 0.3% polyethyleneimine-treated GF/B filter plates using a Brandel harvester. […] Filter plates were dried overnight, scintillant was added, and the radioactivity retained on the filters was counted on a TopCount scintillation counter (PerkinElmer). Half maximal inhibitory concentration (IC50) and inhibitory constant (Ki) of test compounds were calculated using GraphPad’s Prism 5 nonlinear sigmoidal curve-fitting program. […] Ki values were calculated using the Cheng-Prusoff equation.

In data set [2] the target is α1a, α1b, α1d, β1, β2, β3, D2, D5, DAT, GABA-A, H2, H3, H4, mAChR1-5, opioid receptors (δ, κ, µ), benzodiazepine receptors (peripheral and brain) …. In words: Additional selectivity profiling, receptors and transporters (PDSP). The following applies: PDSP panel, limited binding capacity; read-out: Ki at a variety of receptors and transporters. The protocol: In vitro assessments of MC-170073, MC-20078, and MC-230079 activity at the following targets were determined using the assay systems available through the Psychoactive Drug Screening Program (PDSP). Detailed protocols for each assay are available at https://pdsp.unc.edu/pdspweb/?site=assays. Receptors 5-HT1A, 5-HT1B, 5-HT1D, 5-HT1E, 5-HT2A, 5-HT2B, 5-HT2C, 5-HT3, 5-HT5A, 5-HT6, 5-HT7, α1A, α1B, α1D, α2A, α2B, α2C, benzodiazepine, β1, β2, β3, GABA-A, H1, H2, H3, H4, M1, M2, M3, M4, M5, δ-opioid, κ-opioid, and µ-opioid and transporters dopamine, norepinephrine, and serotonin were evaluated.

The target in the next data set is T2, D1 (Homo sapiens, UniProt P21728).
T2 construct: NIMH Psychoactive Drug Screening Program (PDSP), assay service
T2 sequence (P21728 whole entry): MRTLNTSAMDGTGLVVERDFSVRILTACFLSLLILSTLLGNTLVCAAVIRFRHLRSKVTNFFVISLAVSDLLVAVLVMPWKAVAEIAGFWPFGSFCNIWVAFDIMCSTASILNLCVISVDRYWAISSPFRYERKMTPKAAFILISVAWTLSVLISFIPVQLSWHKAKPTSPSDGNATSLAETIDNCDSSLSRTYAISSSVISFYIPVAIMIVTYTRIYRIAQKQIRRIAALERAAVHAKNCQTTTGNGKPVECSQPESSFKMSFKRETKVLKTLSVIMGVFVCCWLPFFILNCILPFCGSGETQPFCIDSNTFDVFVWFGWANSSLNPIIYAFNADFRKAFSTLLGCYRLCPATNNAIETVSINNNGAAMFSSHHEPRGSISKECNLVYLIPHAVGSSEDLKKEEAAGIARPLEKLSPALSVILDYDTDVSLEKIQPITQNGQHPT
In words: PDSP selectivity profiling, D1. The class given is binding.

Another data set concerns the target CYP2C9 (Homo sapiens, UniProt P11712). In words: Cytochrome P450 inhibition assay, 2C9 (fluorescent substrate). The class given is in vitro ADME. The settings on record: expressed enzyme. As to the method:
Compounds were assessed for their ability to inhibit human cytochrome P450 3A4 using testosterone as a substrate and LC-MS/MS analysis, whereas the 2D6 and 2C9 assays used fluorescent substrates and EnVision plate reader analysis. Expressed enzymes were used to minimize nonspecific binding and membrane partitioning issues ([15]).

A short description of data set [3]: Microsomal stability assay, human liver microsomes. The class given is in vitro ADME. The following applies: 37°C, NADPH regenerating system, read-out: T1/2 HLM. The protocol: Test compounds were assessed for microsomal stability by incubating at 37°C in the presence of mouse or human liver microsomes and an NADPH regenerating system as described by Yang et al. ([16]). Microsomal protein content was adjusted to ensure accurate rates of substrate consumption. Analysis was performed by LC-MS/MS analysis.
(Liver microsomes are vesicles of endoplasmic reticulum, rich in cytochrome P450 enzymes.)

The structures appear in SMILES notation. Bounds are passed on as bounds.

T1 sequence (P34969 1-445 isoform P34969-2): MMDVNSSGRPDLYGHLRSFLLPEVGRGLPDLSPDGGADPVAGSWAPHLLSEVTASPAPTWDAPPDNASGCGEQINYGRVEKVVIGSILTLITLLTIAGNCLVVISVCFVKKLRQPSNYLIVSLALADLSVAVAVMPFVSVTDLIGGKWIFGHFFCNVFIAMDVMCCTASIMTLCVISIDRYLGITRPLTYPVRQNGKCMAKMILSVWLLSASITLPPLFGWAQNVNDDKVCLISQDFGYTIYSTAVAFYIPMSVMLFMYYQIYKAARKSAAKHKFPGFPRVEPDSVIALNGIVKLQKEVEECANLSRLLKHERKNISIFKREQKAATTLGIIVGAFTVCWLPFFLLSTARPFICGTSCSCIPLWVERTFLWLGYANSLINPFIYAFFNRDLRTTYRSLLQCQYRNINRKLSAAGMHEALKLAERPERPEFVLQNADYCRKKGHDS
Sequence of CYP2C9 (P11712 whole entry): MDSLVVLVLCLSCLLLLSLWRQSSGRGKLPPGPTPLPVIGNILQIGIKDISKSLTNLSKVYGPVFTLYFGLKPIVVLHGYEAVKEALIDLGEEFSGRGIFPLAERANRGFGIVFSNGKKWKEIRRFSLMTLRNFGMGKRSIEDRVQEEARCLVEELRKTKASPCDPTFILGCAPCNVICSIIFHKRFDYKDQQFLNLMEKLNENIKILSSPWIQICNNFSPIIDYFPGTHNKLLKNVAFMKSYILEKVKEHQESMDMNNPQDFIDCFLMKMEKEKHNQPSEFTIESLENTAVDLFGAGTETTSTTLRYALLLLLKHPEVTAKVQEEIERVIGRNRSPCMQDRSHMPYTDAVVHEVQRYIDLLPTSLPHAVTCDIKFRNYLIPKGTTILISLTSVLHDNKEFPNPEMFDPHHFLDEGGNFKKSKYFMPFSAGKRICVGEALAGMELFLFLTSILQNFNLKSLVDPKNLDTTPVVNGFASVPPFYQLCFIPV

For the molecule `CCC1(CC)CC(CCN2CCN(c3ccc(O)cc3)CC2)OC1=O` (centres unmarked) [MC-170073], the inhibition constant Ki (usually the equilibrium dissociation constant of an inhibitor or competing ligand from its target) in data set [1] is 89 nM; in data set [2], more than 10000 nM; at D1, 301 nM. The concentration for half-maximal inhibition (IC50) (commonly the point on the concentration scale where inhibition reaches its midpoint) at CYP2C9 is more than 10000 nM. Moreover, the half-life in data set [3] was more than 1 h.
As for `CCC1(CC)C[C@@H](CCN2CCN(c3ccc(O)cc3)CC2)OC1=O` [MC-230078], the affinity in data set [1] corresponds to a Ki of 106 nM. Moreover, the IC50 at CYP2C9 is more than 10000 nM. The half-life in data set [3] amounted to 1 h.

The values above are taken from paper PMC11550998, “Novel 5-HT7 receptor antagonists modulate intestinal immune responses and reduce severity of colitis” (American Journal of Physiology - Gastrointestinal and Liver …, 2024).
